Legend:
Assay in all cases: kinase binding screen (kinase-tagged T7 phage, qPCR), % Ctrl
[1] = target: DYRK1A (Homo sapiens, UniProt Q13627)
Description: (§1) Percentage kinase inhibition at a set concentration was performed by methods well known in the prior art (Fabian, M. A. et al. Nat. Biotechnol. 2005, 23, 329; Karaman et al. (2008) Nat. Biotechnol. […], 26, 127). Briefly, kinase-tagged T7 phage strains were grown in parallel in 24-well blocks in an E. coli host derived from the BL21 strain. E. coli were grown to log-phase and infected with T7 phage from a frozen stock (multiplicity of infection=0.4) and incubated with shaking at 32° C. until lysis (90-150 minutes). The lysates were centrifuged (6,000×g) and filtered (0.2 μm) to remove cell debris. […] The liganded beads were blocked with excess biotin and washed with blocking buffer (SeaBlock (Pierce); 1% BSA, 0.05% Tween 20, 1 mM DTT) to remove unbound ligand and to reduce non-specific phage binding. […] Test compounds were prepared as 40× stocks in 100% DMSO and directly diluted into the assay. All reactions were performed in polypropylene 384-well plates in a final volume of 0.04 mL. […] The kinase concentration in the eluates was measured by qPCR.

[2] = target: T1, YSK4 (Homo sapiens, UniProt Q56UN5)
T1 sequence (Q56UN5 1-1328): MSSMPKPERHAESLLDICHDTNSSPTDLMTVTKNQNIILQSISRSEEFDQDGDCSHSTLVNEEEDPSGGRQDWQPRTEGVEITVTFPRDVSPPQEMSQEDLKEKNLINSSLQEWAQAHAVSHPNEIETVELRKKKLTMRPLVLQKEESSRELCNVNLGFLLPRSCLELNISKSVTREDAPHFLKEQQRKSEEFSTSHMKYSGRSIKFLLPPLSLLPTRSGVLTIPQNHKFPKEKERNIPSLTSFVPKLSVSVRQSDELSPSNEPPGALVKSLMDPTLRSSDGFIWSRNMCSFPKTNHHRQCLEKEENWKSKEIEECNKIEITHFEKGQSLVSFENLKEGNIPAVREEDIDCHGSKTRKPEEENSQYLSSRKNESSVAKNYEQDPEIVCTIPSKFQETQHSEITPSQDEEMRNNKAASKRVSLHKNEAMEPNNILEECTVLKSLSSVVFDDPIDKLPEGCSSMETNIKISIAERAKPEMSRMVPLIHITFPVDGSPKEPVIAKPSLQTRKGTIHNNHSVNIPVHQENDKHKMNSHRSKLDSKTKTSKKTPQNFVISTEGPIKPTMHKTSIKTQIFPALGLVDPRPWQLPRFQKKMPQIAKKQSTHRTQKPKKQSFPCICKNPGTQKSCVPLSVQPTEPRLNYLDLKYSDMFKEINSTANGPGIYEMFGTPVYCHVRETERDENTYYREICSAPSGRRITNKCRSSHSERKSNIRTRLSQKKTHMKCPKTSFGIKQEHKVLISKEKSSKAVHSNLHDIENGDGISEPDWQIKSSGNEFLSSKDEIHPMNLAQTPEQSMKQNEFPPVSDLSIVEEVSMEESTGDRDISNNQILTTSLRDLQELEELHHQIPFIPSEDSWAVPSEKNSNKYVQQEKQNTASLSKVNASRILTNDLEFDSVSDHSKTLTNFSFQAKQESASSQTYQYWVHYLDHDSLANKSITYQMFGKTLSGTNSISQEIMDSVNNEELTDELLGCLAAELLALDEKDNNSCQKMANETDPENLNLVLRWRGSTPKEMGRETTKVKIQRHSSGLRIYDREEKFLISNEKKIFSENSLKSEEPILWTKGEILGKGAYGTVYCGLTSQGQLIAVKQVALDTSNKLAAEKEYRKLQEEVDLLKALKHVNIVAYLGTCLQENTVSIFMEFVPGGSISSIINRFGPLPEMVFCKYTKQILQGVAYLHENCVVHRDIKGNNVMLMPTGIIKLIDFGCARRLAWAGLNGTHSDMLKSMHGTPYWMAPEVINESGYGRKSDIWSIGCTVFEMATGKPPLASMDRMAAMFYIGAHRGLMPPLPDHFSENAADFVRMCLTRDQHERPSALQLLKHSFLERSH
Description: as §1

[3] = target: T2, PLK4 (Homo sapiens, UniProt O00444)
T2 sequence (O00444 1-970): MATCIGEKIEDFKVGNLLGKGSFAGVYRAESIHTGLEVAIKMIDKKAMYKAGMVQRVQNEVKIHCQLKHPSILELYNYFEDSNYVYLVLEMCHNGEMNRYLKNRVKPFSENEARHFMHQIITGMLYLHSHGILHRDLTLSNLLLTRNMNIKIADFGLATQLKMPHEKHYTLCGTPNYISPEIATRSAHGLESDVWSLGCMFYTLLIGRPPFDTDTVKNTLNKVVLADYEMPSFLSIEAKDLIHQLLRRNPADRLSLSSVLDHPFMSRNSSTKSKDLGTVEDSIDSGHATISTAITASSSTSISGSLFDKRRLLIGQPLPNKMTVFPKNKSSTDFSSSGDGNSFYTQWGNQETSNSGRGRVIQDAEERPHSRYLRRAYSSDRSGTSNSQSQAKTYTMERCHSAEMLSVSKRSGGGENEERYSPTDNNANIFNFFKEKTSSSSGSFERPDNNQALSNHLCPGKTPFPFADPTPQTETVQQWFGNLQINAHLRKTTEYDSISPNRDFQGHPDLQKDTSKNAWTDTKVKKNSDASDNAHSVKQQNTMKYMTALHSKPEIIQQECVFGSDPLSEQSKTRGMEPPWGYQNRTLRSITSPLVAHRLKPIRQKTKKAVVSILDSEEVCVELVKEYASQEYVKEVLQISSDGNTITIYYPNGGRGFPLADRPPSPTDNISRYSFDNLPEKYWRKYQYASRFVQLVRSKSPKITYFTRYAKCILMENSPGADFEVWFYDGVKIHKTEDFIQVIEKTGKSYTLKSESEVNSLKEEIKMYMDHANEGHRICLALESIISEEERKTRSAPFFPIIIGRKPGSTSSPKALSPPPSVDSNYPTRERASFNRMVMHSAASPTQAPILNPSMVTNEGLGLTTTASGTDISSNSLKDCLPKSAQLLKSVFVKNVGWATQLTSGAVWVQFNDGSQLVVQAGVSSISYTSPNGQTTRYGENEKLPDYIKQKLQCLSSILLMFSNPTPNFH
Description: as §1

Row | Compound | remaining activity at 1 µM [1] [%] | remaining activity at 10 µM ([1]; 10 μM) [%] | remaining activity at 1 µM [2] [%] | remaining activity at 10 µM ([2]; 10 μM) [%] | remaining activity at 1 µM [3] [%] | remaining activity at 10 µM ([3]; 10 μM) [%]
1 | Nc1nc2c(-c3cc(Br)c(Br)[nH]3)nccc2[nH]1 [Ageladine A, ageladine A, reference compound] | 38 | 4.7 | 56 | 5.1 | 81 | 65
2 | Nc1nc2c(-c3ccccn3)nccc2[nH]1 [drawing 35, 4-(pyrid-2-yl)-1H-imidazo[4,5-c]pyridin-2-amine] | 36 | – | 16 | – | 55 | –
3 | Nc1nc2c(-c3cnc4ccccc4c3)nccc2[nH]1 [drawing 36, 4-(quinolin-3-yl)-1H-imidazo[4,5-c]pyridin-2-amine] | 51 | – | 82 | – | 100 | –
